Laboratory results: paper PMC8507696, “Effect of Peptide Receptor Radionuclide Therapy in Combination with Temozolomide against Tumor Angiogenesis in a Glioblastoma Model” (Cancers, 2021)

Tests used:
integrin αvβ3 = assay: anti-integrin αvβ3 immunohistochemical staining of dissected tumor tissues; assay type: in vivo, BALB/c nu/nu nude mice; settings: TMZ 5 mgkg^−1, after 2 weeks
Description: Tumor tissues were harvested on day 14 after the treatment and immediately fixed in 10% formalin solution. Frozen tissue sections (5 μm) were placed onto glass slides. The tumor sections were stained with anti-integrin αvβ3 rabbit antibody (1:1000, Millipore) at 4 °C for 16 h. The sections were then incubated with anti-rabbit secondary antibody (biotinylated) at room temperature for 1 h. The detection system (Vector Laboratories, Burlingame, CA, USA) was applied according to the manufacturer’s instructions. The nuclei were counter-stained with hematoxylin (Invitrogen, Carlsbad, CA, USA). For assessment of tumor vascularization, mouse anti-human CD31 monoclonal antibody (diluted 1:40, Dako) staining was performed on acetone-fixed cryosections using a blood vessel staining kit (ECM590, Millipore Ireland, Cork, Ireland). For another assessment of integrin αvβ3 receptors in dissected tumor tissues, anti-integrin αvβ3 (SC-7312, Santa Cruz Biotech, Santa Cruz, CA, USA) was used. Primary antibody against γH2AX (diluted 1:50, Abcam) was applied to acetone-fixed cryosections and incubated overnight. […] Images were acquired using Axioscope A1 fluorescent microscope (Carl Zeiss, Jena, Germany) or AxioCam MRc5 (Carl Zeiss, Jena, Germany) and analyzed with Axiovision software (version 4.4, Carl Zeiss Meditec, Jena, Germany). […]

U87-MG xenografts = assay: combination therapy of TMZ with 188Re-IDA-D-[c(RGDfK)]2: tumor volume; assay type: in vivo, BALB/c nu/nu nude mice; settings: TMZ 2 or 5 mgkg^−1 once a week for 14 days, n = 4
Description: A suspension of human glioblastoma U87-MG cells was prepared (5 × 10^6 cellsmL^−1). A total of 0.1 mL of cell suspension was injected subcutaneously into the right flank of a 6–7-week-old male BALB/c nu/nu nude mice (20–25 g, Orient Bio Inc., Seongnam, Korea). In the case of pharmacokinetic studies of ^99mTc-IDA-D-[c(RGDfK)]2, we used tumor xenograft mice whose tumor cells were inoculated in the right shoulder and performed the SPECT imaging study when tumor volume reached 68.7 ± 18.8 mm^3 at 10 days after injection of U87-MG cells. Evaluations of integrin-targeted blocking and radiotherapy treatment on the growth of U87-MG xenografts were carried out when tumor volume reached 59.4 ± 14.9 mm^3 (For authentic “cold” Re-peptide (^185/187Re-IDA-D-[c(RGDfK)]2) treatment) and 66.2 ± 15.3 mm^3 (For radiotherapy (^188Re-IDA-D-[c(RGDfK)]2) treatment) at 10 days after injection of U87-MG cells. Experiments with vehicle, negative control peptide (^188Re-IDA-D-[c(RADfK)]2) or ^188Re-IDA-D-[c(RGDfK)]2 treatments (11.1 MBq) in U87-MG xenografts were carried out when tumor volume reached 40.3 ± 14.8 mm^3 at 9 days after injection of U87-MG cells. […]
For caliper measurements, tumor length (longitudinal diameter) and tumor width (transverse diameter) were measured, and the tumor volume was calculated according to the following formula: tumor volume = (length × width^2)/2.

For `Cn1nnc2c(C(N)=O)ncn2c1=O` [TMZ, Temozolomide], the “integrin expression in tumor tissues” value (integrin αvβ3) was “reduced integrin expression” and the “tumor size compared with saline treatment” value (U87-MG xenografts) was “significantly reduced tumor size”.
